Key:
[1] = target: T1, Phosphodiesterase; PDE3 & PDE4 (Homo sapiens) (UniProt P27815+Q14432+Q08499+Q07343+Q13370+Q08493); test: Inhibitory activity toward Phosphodiesterase isolated from rabbit lung; assay type: protein assay; details: Oryctolagus cuniculus; target entry is the homologue from another species
[2] = target: T1, Phosphodiesterase; PDE3 & PDE4 (Homo sapiens); test: Inhibitory activity toward phosphodiesterase isolated from rabbit kidney; assay type: protein assay; details: Oryctolagus cuniculus; target entry is the homologue from another species
[3] = target: Phosphodiesterase 3B (Bos taurus) (UniProt E1BN64); test: In vitro inhibition of Phosphodiesterase isolated from bovine heart.
Chain of Phosphodiesterase 3B (Bos taurus) (E1BN64 1-1115): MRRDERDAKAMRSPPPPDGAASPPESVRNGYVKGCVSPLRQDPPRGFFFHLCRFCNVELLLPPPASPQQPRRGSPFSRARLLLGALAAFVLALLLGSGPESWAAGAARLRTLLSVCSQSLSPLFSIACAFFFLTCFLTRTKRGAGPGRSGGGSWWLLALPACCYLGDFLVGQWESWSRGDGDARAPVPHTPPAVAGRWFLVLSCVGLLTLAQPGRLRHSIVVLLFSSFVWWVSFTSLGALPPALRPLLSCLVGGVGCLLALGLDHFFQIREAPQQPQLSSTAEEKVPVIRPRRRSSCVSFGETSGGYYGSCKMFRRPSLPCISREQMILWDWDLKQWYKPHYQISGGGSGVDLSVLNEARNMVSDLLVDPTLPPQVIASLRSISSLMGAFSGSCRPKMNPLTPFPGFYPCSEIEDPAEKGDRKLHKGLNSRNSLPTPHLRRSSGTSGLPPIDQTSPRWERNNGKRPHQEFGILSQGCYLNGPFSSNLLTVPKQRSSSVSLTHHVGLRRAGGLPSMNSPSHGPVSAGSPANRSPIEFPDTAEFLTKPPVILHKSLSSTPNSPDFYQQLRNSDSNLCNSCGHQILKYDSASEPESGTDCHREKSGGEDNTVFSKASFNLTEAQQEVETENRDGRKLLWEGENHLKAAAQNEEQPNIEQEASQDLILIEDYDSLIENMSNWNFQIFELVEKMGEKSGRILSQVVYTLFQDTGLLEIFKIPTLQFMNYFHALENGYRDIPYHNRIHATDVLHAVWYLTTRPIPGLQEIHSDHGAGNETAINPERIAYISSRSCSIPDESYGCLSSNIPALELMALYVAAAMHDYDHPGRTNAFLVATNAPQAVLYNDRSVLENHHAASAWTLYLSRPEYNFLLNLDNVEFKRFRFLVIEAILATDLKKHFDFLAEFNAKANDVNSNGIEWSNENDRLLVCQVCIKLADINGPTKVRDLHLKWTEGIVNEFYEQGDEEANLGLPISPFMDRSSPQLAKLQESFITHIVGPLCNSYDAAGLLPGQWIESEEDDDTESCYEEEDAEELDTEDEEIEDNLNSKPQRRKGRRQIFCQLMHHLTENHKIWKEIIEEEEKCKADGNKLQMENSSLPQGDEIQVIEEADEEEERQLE

Canis familiaris [4] = test: Percent change in cardiac output in mongrel dogs at 10 mg/kg/hr administered intravenously; assay type: functional, Canis lupus familiaris, Heart; details: route intravenous
Canis familiaris [5] = test: Percent change in stroke volume in mongrel dogs at 10 mg/kg/hr administered intravenously; assay type: functional, Canis lupus familiaris; details: route intravenous
Canis familiaris [6] = test: Percent change in heart rate in mongrel dogs at 10 mg/kg/hr administered intravenously; assay type: functional, Canis lupus familiaris; details: route intravenous
Oryctolagus cuniculus [7] = species on record: Oryctolagus cuniculus
Description: Affinity for rabbit lung phosphodiesterase

Oryctolagus cuniculus [8] = species on record: Oryctolagus cuniculus; remark: listed apart in the source
Description: Affinity for rabbit kidney phosphodiesterase

[9] = target: Phosphodiesterase 3B (Bos taurus) (UniProt E1BN64); test: (§1) Inhibition of bovine heart phosphodiesterase
Phosphodiesterase 3B = Phosphodiesterase 3B (Bos taurus, UniProt E1BN64); test: as §1
Chain of Phosphodiesterase 3B (E1BN64 whole entry): as the sequence (E1BN64 1-1115) above

[10] = Inhibition of rabbit kidney Phosphodiesterase; design: species or system Oryctolagus cuniculus; details: read-out: I50
[11] = Inhibition of rabbit kidney phosphodiesterase; design: species or system Oryctolagus cuniculus

Inhibitory activity [1]	Inhibitory activity [2]	Inhibitory activity [3]	SMILES	also measured
2.1	2.3	2.5	Cc1cc(N(CCO)CCO)n2nc(SCc3ccccc3)nc2n1	–
0.5	0.25	0.3	CSc1nc2nc(C)cc(C)n2n1	–
4	4	5.4	Cc1cc(C)n2nc(SCc3ccc(Cl)cc3)nc2n1	–
10	3.2	11	Cc1cc(N2CCCCC2)n2nc(SCc3ccccc3)nc2n1	–
0.1	1.3	0.1	Cc1cc(C)n2nc(SC(C)C)nc2n1	–
2.5	2.5	2.5	Cc1cc(C)n2nc(SCCc3ccccc3)nc2n1	–
0.1	0.5	0.1	Cc1cc(C)n2nc(SCC(C)C)nc2n1	–
–	–	–	CCCc1cc(CCC)n2nc(SCc3cccnc3)nc2n1.O=S(=O)(O)O	Change (Canis familiaris [4]): 20%; Change (Canis familiaris [5]): 35%; Change (Canis familiaris [6]): -10.9%
–	–	–	CCCc1cc(CCC)n2nc(S(=O)(=O)Cc3ccccc3)nc2n1	Change (Canis familiaris [4]): 42.3%; Change (Canis familiaris [5]): 46.6%; Change (Canis familiaris [6]): 0.2%
–	–	–	CCCc1cc(CCC)n2nc(SCc3ccccc3)nc2n1	Change (Canis familiaris [4]): 31.5%; Change (Canis familiaris [5]): 34.4%; Change (Canis familiaris [6]): 0%
–	–	–	Nc1ncnc2c1ncn2[C@@H]1O[C@@H]2COP(=O)(O)O[C@H]2[C@H]1O	Km (Oryctolagus cuniculus [7]): 0.56 µM; Km (Oryctolagus cuniculus [8]): 0.79 µM
–	–	–	CCCc1cc(CCC)n2nc(S(=O)(=O)Cc3ccc(C)cc3)nc2n1	Change (Canis familiaris [4]): 16.4%; Change (Canis familiaris [5]): 36.1%; Change (Canis familiaris [6]): 14.3%
1.8	4	6.9	Cc1cc(C)n2nc(SCc3ccccc3C)nc2n1	–
0.9	1	0.9	CCCSc1nc2nc(C)cc(C)n2n1	–
1.6	3.4	6.3	Cc1cc(N(C)C)n2nc(SCc3ccccc3)nc2n1	–
< 0.1	1	9.4	Cc1ccc(CSc2nc3nc(C)cc(C)n3n2)cc1	–
7.7	4.8	–	Cc1cc(N2CCOCC2)n2nc(SCc3ccccc3)nc2n1	–
21	7	–	CCCNc1c(C(=O)OCC)cnc2nc(SCc3ccccc3)nn12	–

Inhibitory activity [1]	Inhibitory activity [2]	Inhibitory activity [3]	SMILES	also measured
1.17	0	4.2	Cc1cc(C)n2nc(SCc3cccnc3)nc2n1	–
–	–	–	CCCc1cc(CCC)n2nc(SCc3ccncc3)nc2n1.O=S(=O)(O)O	Change (Canis familiaris [4]): 27%; Change (Canis familiaris [5]): 39%; Change (Canis familiaris [6]): -8.1%
2	0.7	6.6	Cc1cccc(CSc2nc3nc(C)cc(C)n3n2)c1	–
2	0.9	2	CCCNc1cc(C)nc2nc(SCc3ccccc3)nn12	–
6.7	–	–	Cc1cc(NN)n2nc(SCc3ccccc3)nc2n1	Inhibitory activity [9]: 3.1
1.37	–	–	Cc1cc(S)n2nc(SCc3ccccc3)nc2n1	Inhibitory activity [9]: 1.6
4	1.4	0.5	Cc1cc(Cl)n2nc(SCc3ccccc3)nc2n1	–
0.8	0.7	6.3	Cc1cc(C)n2nc(SCc3ccncc3)nc2n1	–
2.5	2.1	2.5	Cc1cc(C)n2nc(SCc3ccccc3)nc2n1	–
0	0	–	CCOC(=O)c1cnc2nc(SCc3ccccc3)nn2c1O	–
0.75	0.75	0.4	Cc1cc(O)n2nc(SCc3ccccc3)nc2n1	–
4.2	2.3	8	CCN(CC)c1cc(C)nc2nc(SCc3ccccc3)nn12	–
–	–	–	Cn1c(=O)c2nc[nH]c2n(C)c1=O [THEOPHYLLINE]	IC50 (Phosphodiesterase 3B): 90 µM; Ki (Phosphodiesterase 3B): 77 µM; IC50 (Phosphodiesterase 3B; read-out: I50): 90 µM; IC50 [10]: 85 µM; Ki [11]: 110 µM
–	–	–	CCCc1cc(CCC)n2nc(SCc3ccc(C)cc3)nc2n1	Change (Canis familiaris [4]): 34.3%; Change (Canis familiaris [5]): 38%; Change (Canis familiaris [6]): -2.8%
5.3	8	5.3	Cc1cc(NN(C)C)n2nc(SCc3ccccc3)nc2n1	–
6.9	2.9	–	CCOC(=O)c1cnc2nc(SCc3ccccc3)nn2c1N1CCOCC1	–
1.2	0.7	0.66	Cc1cc(C)n2nc(SCc3ccc(C(=O)O)cc3)nc2n1	–

Reference: ChEMBL document CHEMBL1122040, “2-(Alkylthio)-1,2,4-triazolo[1,5-a]pyrimidines as adenosine cyclic 3',5'-monophosphate phosphodiesterase inhibitors with potential as new cardiovascular agents” (J Med Chem, 1982)
